Measurements reported in PubChem BioAssay (NCI).
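Values below derive from 48-hour exposures of cells grown in 96-well plates, with endpoints linearly interpolated between the two concentrations bracketing the appropriate inhibition level. GI50 = concentration required for 50% inhibition of growth. TGI is the concentration that stops growth completely.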

Assays:
Assay in all cases: NCI tumour cell line growth inhibition, 48 h
SK-MEL-2 melanoma = tested on: SK-MEL-2 melanoma
HCT-15 colon = tested on: HCT-15 colon
HT29 colon = tested on: HT29 colon
SF-295 CNS = tested on: SF-295 CNS
M14 melanoma = tested on: M14 melanoma
HCT-116 colon = tested on: HCT-116 colon
RPMI-8226 leukemia = tested on: RPMI-8226 leukemia
OVCAR-4 ovarian = tested on: OVCAR-4 ovarian
HCC-2998 colon = tested on: HCC-2998 colon

Row | Structure (SMILES) | TGI (SK-MEL-2 melanoma) [µM] | TGI (HCT-15 colon) [µM] | TGI (HT29 colon) [µM] | TGI (SF-295 CNS) [µM] | TGI (M14 melanoma) [µM] | TGI (HCT-116 colon) [µM] | TGI (RPMI-8226 leukemia) [µM] | TGI (OVCAR-4 ovarian) [µM] | TGI (HCC-2998 colon) [µM] | GI50 (SK-MEL-2 melanoma) [µM] | GI50 (OVCAR-4 ovarian) [µM] | GI50 (HCT-15 colon) [µM] | GI50 (HT29 colon) [µM] | GI50 (SF-295 CNS) [µM] | GI50 (M14 melanoma) [µM] | GI50 (HCT-116 colon) [µM] | GI50 (HCC-2998 colon) [µM] | GI50 (RPMI-8226 leukemia) [µM]
1 | Cc1ccccc1C1=[N+]([O-])c2ccccc2C1=O | 21.2 | 34.8 | 27.7 | 44.9 | 32.4 | 32.4 | > 100 |  |  |  |  |  |  |  |  |  |  | 
2 | Nc1nc2sc3ccccc3c(=O)n2n1 | > 100 | > 100 | > 100 | > 100 | > 100 | > 100 | > 100 | > 100 | > 100 |  |  |  |  |  |  |  |  | 
3 | Cc1oc2c(C)c3oc(=O)cc(C)c3cc2c1CNC(=O)[C@@H]1OCCOCCOCCOCCOCCOC1C(=O)O (stereo partly drawn) |  | > 100 | > 100 | > 100 | 27.5 | > 100 | > 100 | > 100 | > 100 |  |  |  |  |  |  |  |  | 
4 | CCCCCCCC(=O)NCC(O)CNC(=O)CCCCCCC |  | > 100 | > 100 | > 100 | > 100 | > 100 | > 100 | > 100 | > 100 |  |  |  |  |  |  |  |  | 
5 | CCOC(=O)c1c(-c2ccccc2)oc(-c2ccccc2)c1C(=O)OCC | > 100 |  | > 100 | > 100 | > 100 | > 100 | > 100 |  | > 100 |  |  |  |  |  |  |  |  | 
6 | CC[O-].CC[O-].O=C([CH-]C(=O)c1cccnc1)c1ccccc1.O=C([CH-]C(=O)c1cccnc1)c1ccccc1.[Ti+4] | > 100 | > 100 | > 100 | > 100 | > 100 | > 100 | > 100 | > 100 | > 100 | > 100 | > 100 | 18.3 | 57.1 | 77.6 | 60.4 | > 100 | > 100 | 55.8
7 | CN(C)CCN(C)CC1COC(C)(C)O1 (stereo not drawn) | > 100 |  | > 100 | > 100 | > 100 | > 100 | > 100 | > 100 | > 100 |  |  |  |  |  |  |  |  | 
8 | O=C(C=Nc1ccccc1C(=O)[O-])c1cccs1.O=C(C=Nc1ccccc1C(=O)[O-])c1cccs1.[Co+2] | > 100 | > 100 | > 100 | > 100 | > 100 | > 100 |  |  | > 100 |  |  |  |  |  |  |  |  | 
9 | [Cl][Sn]([Cl])([c]1ccccc1)[c]1ccccc1 | 14.1 | 23.2 | 30.5 | 33.5 | 29 |  | 18 | 31 | 28.5 | 4 | 16.8 | 10.3 | 16.1 | 17 | 15.3 |  | 15 | 2.71
